# Assay results published in US11045457B2, “Piperidinyl-3-(aryloxy)propanamides and propanoates” (priority 2018, dated 2021).
# Target: SSTR4 (Homo sapiens (Human), UniProt P31391)
# Assay: Inhibition of forskolin stimulated cAMP in CHO-K1 cells overexpressing SSTR4
# Type: cell-based
# Details: not given
# Protocol: Inhibition of Forskolin Stimulated cAMP in Cells Overexpressing SSTR4
# This cell-based assay measures the ability of compounds to inhibit forskolin stimulated cAMP in CHO-K1 cells overexpressing SSTR4. CHO-K1 cells overexpressing SSTR4 (CHO-SSTR4) are purchased from DiscoveRx (product code 95-0059C2). The CHO-SSTR4 cells are maintained in F12K media with 10% Fetal Bovine Serum (Hyclone), 1% Pen/Strep (Life Technologies), and 800 μg/mL G418 (Life Technologies). […] The next day, the culture media is removed from the cells and the cells are washed (added then removed) with Kreb's Ringer Buffer (ZenBio, KRB-1000 mL). […] The cells are incubated in […] for 30 minutes at room temperature. Cellular cAMP levels are detected with a HTRF LANCE Ultra cAMP kit (Perkin Elmer, catalog number TRF0264).
# The assay is performed in accordance with the manufacturer's instructions. Five μL of diluted Eu-W8044 labeled streptavidin (dilution: 1:50 in cAMP Detection Buffer) is added to each well. Then 5 μL of diluted biotin cAMP (dilution: 1:150 in cAMP Detection Buffer) is added to each well. The plates are covered and allowed to incubate for 60 minutes at room temperature on a shaker. […] The pEC50 values are generated using Activity Base for Screening Data Management.
# SSTR4, sequence (P31391 whole entry): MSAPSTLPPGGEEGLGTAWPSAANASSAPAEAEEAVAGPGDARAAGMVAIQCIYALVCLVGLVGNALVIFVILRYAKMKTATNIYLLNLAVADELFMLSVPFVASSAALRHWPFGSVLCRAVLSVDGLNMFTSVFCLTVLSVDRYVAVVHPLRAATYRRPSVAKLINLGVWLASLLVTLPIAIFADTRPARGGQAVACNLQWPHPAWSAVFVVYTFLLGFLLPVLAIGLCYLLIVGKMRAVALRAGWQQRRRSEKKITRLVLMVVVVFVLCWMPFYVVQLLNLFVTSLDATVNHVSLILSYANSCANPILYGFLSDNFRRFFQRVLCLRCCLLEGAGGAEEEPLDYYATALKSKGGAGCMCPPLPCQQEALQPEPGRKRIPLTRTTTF
row,SMILES,SSTR4 Activity pEC50
1,"Cc1cccnc1OCC(C)(C)C(=O)NC1CCN(C)C1 (stereo not shown) [Example 2, 2,2-dimethyl-3-((3-methylpyridin-2-yl)oxy)-N-(1-methylpyrrolidin-3-yl)propanamide]",6.3
2,"Cc1cc(C2CC2)cnc1OCC(C)(C)C(=O)NC1CCN(C)CC1 [Example 8, 3-((5-cyclopropyl-3-methylpyridin-2-yl)oxy)-2,2-dimethyl-N-(1-methylpiperidin-4-yl)propanamide]",7.0
3,"C[C@@H]1C[C@@H](NC(=O)C(C)(C)COc2ncccc2C(F)(F)F)CCN1C [Example 177, N-((2R,4S)-1,2-dimethylpiperidin-4-yl)-2,2-dimethyl-3-((3-(trifluoromethyl)pyridin-2-yl)oxy)propanamide]",6.9
4,"Cc1cnc(OCC(C)(C)C(=O)N[C@@H]2CCN(C)C2)c(C2CC2)c1 [Example 7, (R)-3-((3-cyclopropyl-5-methylpyridin-2-yl)oxy)-2,2-dimethyl-N-(1-methylpyrrolidin-3-yl)propanamide]",7.2
5,"CN1CCC(NC(=O)C(C)(C)COc2ccc(C#N)cc2C(F)(F)F)CC1 [Example 73, 3-(4-cyano-2-(trifluoromethyl)phenoxy)-2,2-dimethyl-N-(1-methylpiperidin-4-yl)propanamide]",7.0
6,"Cc1cccnc1OCC(C)(C)C(=O)N[C@@H]1CCN(C)C[C@H]1C [Example 142, N-((3R,4R)-1,3-dimethylpiperidin-4-yl)-2,2-dimethyl-3-((3-methylpyridin-2-yl)oxy)propanamide]",6.1
7,"CN1CCC(NC(=O)C(C)(C)COc2cccc(F)c2)CC1 [Example 203, 3-(3-fluorophenoxy)-2,2-dimethyl-N-(1-methylpiperidin-4-yl)propanamide]",7.1
8,"CN1CCC(NC(=O)C(C)(C)COc2ccc(F)cc2)CC1 [Example 204, 3-(4-fluorophenoxy)-2,2-dimethyl-N-(1-methylpiperidin-4-yl)propanamide]",6.4
9,"CN1CCC(NC(=O)C(C)(C)COc2ncccc2C(F)(F)F)C(F)C1 (stereo not shown) [Example 113, N-(3-fluoro-1-methylpiperidin-4-yl)-2,2-dimethyl-3-((3-(trifluoromethyl)pyridin-2-yl)oxy)propanamide]",5.9
10,"CN1CCC(NC(=O)C(C)(C)COc2ncccc2F)CC1 [Example 39, 3-((3-fluoropyridin-2-yl)oxy)-2,2-dimethyl-N-(1-methylpiperidin-4-yl)propanamide]",6.3
11,"CN1CCC(NC(=O)C(C)(C)COc2ncccc2C(F)(F)F)C(Cl)C1 (stereo not shown) [Example 120, N-(3-chloro-1-methylpiperidin-4-yl)-2,2-dimethyl-3-((3-(trifluoromethyl)pyridin-2-yl)oxy)propanamide]",5.9
12,"CCOc1cccnc1OCC(C)(C)C(=O)NC1CCN(C)CC1 [Example 54, 3-((3-ethoxypyridin-2-yl)oxy)-2,2-dimethyl-N-(1-methylpiperidin-4-yl)propanamide]",7.0
13,"Cc1ccnc(OCC(C)(C)C(=O)NC2CCN(C)CC2)c1C [Example 88, 3-((3,4-dimethylpyridin-2-yl)oxy)-2,2-dimethyl-N-(1-methylpiperidin-4-yl)propanamide]",6.6
14,"C[C@@H]1CN(C)CC[C@H]1NC(=O)C(F)(F)COc1ncccc1C(F)(F)F (relative stereo) [Example 189, trans-N-(1,3-dimethylpiperidin-4-yl)-2,2-difluoro-3-((3-(trifluoromethyl)pyridin-2-yl)oxy)propanamide]",6.8
15,"Cc1cnc(OCC(C)(C)C(=O)NC2CCN(C)CC2)c(C2CC2)c1 [Example 6, 3-((3-cyclopropyl-5-methylpyridin-2-yl)oxy)-2,2-dimethyl-N-(1-methylpiperidin-4-yl)propanamide]",7.3
16,"CN1CCC(NC(=O)C(C)(C)COc2ncccc2C(F)(F)F)C(F)(F)C1 (stereo not shown) [Example 118, N-(3,3-difluoro-1-methylpiperidin-4-yl)-2,2-dimethyl-3-((3-(trifluoromethyl)pyridin-2-yl)oxy)propanamide]",6.2
17,"Cc1nc(Cl)ccc1OCC(C)(C)C(=O)NC1CCN(C)CC1 [Example 46, 3-((6-chloro-2-methylpyridin-3-yl)oxy)-2,2-dimethyl-N-(1-methylpiperidin-4-yl)propanamide]",5.4
18,"CN1C[C@@H](NC(=O)C(C)(C)COc2ncccc2C(F)(F)F)C2(CC2)C1 [Example 173, (S)-2,2-dimethyl-N-(5-methyl-5-azaspiro[2.4]heptan-7-yl)-3-((3-(trifluoromethyl)pyridin-2-yl)oxy)propanamide]",6.3
19,"CN1CCC(NC(=O)C(C)(C)COc2ccccc2)CC1 [Example 74, 2,2-dimethyl-N-(1-methylpiperidin-4-yl)-3-phenoxypropanamide]",6.4

# Further lines, results first:
row,SSTR4 Activity pEC50,SMILES
1,7.9,"CCc1ccccc1OCC(C)(C)C(=O)NC1CN(C)CC1c1ccccc1 (stereo not shown) [Example 97, 3-(2-ethylphenoxy)-2,2-dimethyl-N-(1-methyl-4-phenylpyrrolidin-3-yl)propanamide]"
2,7.0,"CN1CCC(NC(=O)C(C)(C)COc2ncccc2Cl)CC1 [Example 38, 3-((3-chloropyridin-2-yl)oxy)-2,2-dimethyl-N-(1-methylpiperidin-4-yl)propanamide]"
3,6.6,"CN1CCC(NC(=O)C(C)(C)COc2ncccc2C(F)F)CC1 [Example 90, 3-((3-(difluoromethyl)pyridin-2-yl)oxy)-2,2-dimethyl-N-(1-methylpiperidin-4-yl)propanamide]"
4,8.2,"O=C(N[C@H]1CCNC[C@@H]1F)C(F)(F)COc1ncccc1C1CC1 [Example 198, 3-((3-cyclopropylpyridin-2-yl)oxy)-2,2-difluoro-N-((3S,4S)-3-fluoropiperidin-4-yl)propanamide]"
5,6.1,"CN1CCC(NC(=O)C(C)(C)COc2nccnc2C2CC2)CC1 [Example 80, 3-((3-cyclopropylpyrazin-2-yl)oxy)-2,2-dimethyl-N-(1-methylpiperidin-4-yl)propanamide]"
6,7.1,"CN1CCC(NC(=O)C(C)(C)COc2nccc3occc23)CC1 [Example 99, 3-(furo[3,2-c]pyridin-4-yloxy)-2,2-dimethyl-N-(1-methylpiperidin-4-yl)propanamide]"
7,6.5,"CN1CC[C@@H](NC(=O)C(C)(C)COc2ncncc2C2CC2)C1 [Example 4, (R)-3-((5-cyclopropylpyrimidin-4-yl)oxy)-2,2-dimethyl-N-(1-methylpyrrolidin-3-yl)propanamide]"
8,6.0,"Cc1cc(C(F)(F)F)cnc1OCC(C)(C)C(=O)NC1CCN(C)CC1 [Example 91, 2,2-dimethyl-3-((3-methyl-5-(trifluoromethyl)pyridin-2-yl)oxy)-N-(1-methylpiperidin-4-yl)propanamide]"

# Same assay, conditions: read-out: SSTR4 Activity pEC50 (converted)
row,SMILES,EC50 [nM]
1,"CC(C)[C@@H]1CN(C)CC[C@H]1NC(=O)C(C)(C)COc1ncccc1C(F)(F)F (relative stereo) [Example 33, trans-N-(3-isopropyl-1-methylpiperidin-4-yl)-2,2-dimethyl-3-((3-(trifluoromethyl)pyridin-2-yl)oxy)propanamide]",0.794
2,"CC[C@@H]1CN(C)CC[C@H]1NC(=O)C(C)(C)COc1ncccc1C(F)(F)F (single isomer, unassigned) [Example 110, trans-N-(3-ethyl-1-methylpiperidin-4-yl)-2,2-dimethyl-3-((3-(trifluoromethyl)pyridin-2-yl)oxy)propanamide]",1

# Next, values leading:
row,EC50 [nM],SMILES
1,79.4,"C[C@@H]1CN(C)CC[C@@H]1NC(=O)C(C)(C)COc1ncccc1OC(F)(F)F (racemic) [Example 14, cis-N-(1,3-dimethylpiperidin-4-yl)-2,2-dimethyl-3-((3-(trifluoromethoxy)pyridin-2-yl)oxy)propanamide]"
2,63.1,"Cc1ccc([C@@H]2CN(C)C[C@H]2NC(=O)C(C)(C)COc2ncccc2C2CC2)cn1 (relative stereo) [Example 61, trans-3-((3-cyclopropylpyridin-2-yl)oxy)-2,2-dimethyl-N-(1-methyl-4-(6-methylpyridin-3-yl)pyrrolidin-3-yl)propanamide]"
3,25.1,"C[C@@H]1CN(C)CC[C@@H]1NC(=O)C(C)(C)COc1ncccc1C1CC1 (racemic) [Example 21, cis-3-((3-cyclopropylpyridin-2-yl)oxy)-N-(1,3-dimethylpiperidin-4-yl)-2,2-dimethylpropanamide]"
4,1.58,"CN1CC[C@@H](NC(=O)C(C)(C)COc2ncccc2OC(F)(F)F)[C@H](c2cnn(C(F)F)c2)C1 (relative stereo) [Example 126, trans-N-(3-(1-(difluoromethyl)-1H-pyrazol-4-yl)-1-methylpiperidin-4-yl)-2,2-dimethyl-3-((3-(trifluoromethoxy)pyridin-2-yl)oxy)propanamide]"
5,31.6,"CN1C[C@@H](NC(=O)C(C)(C)COc2ncccc2C(F)(F)F)[C@H](c2ccc(C(F)(F)F)nc2)C1 (relative stereo) [Example 59, trans-2,2-dimethyl-N-(1-methyl-4-(6-(trifluoromethyl)pyridin-3-yl)pyrrolidin-3-yl)-3-((3-(trifluoromethyl)pyridin-2-yl)oxy)propanamide]"
